Assay results: article PMC5218480 (PLoS ONE, 2017)

Test system: MV-4-11 cells
Assay: Gene expression microarray analysis (Affymetrix PrimeView) and GSEA
Format: cell-based, human
Design: RFU PODN (11730768_x_at) / Fold change /veh PODN (11730768_x_at) / RFU LINC00158 (11744669_a_at) / Fold change /veh LINC00158 (11744669_a_at) / RFU DUSP10 (11751237_a_at) / Fold change /veh DUSP10 (11751237_a_at) / RFU ID3 (11757404_x_at) / Fold change /veh ID3 (11757404_x_at) / RFU PLEKHG5 (11737974_s_at) / Fold change /veh PLEKHG5 (11737974_s_at) / RFU LRRC4B (11730491_at) / Fold change /veh LRRC4B (11730491_at) / RFU GIMAP4 (11747438_a_at) / Fold change /veh GIMAP4 (11747438_a_at) / RFU KRT8 (11758183_x_at) / Fold change /veh KRT8 (11758183_x_at) / RFU CNN1 (11734310_a_at) / Fold change /veh CNN1 (11734310_a_at) / RFU VPS37D (11726825_at) / Fold change /veh VPS37D (11726825_at) / RFU C10orf10 (11716522_x_at) / Fold change /veh C10orf10 (11716522_x_at) / RFU KIR2DL2 /// KIR2DL4 /// KIR2DL5A /// KIR2DL5B /// KIR2DS1 /// KIR2DS2 /// KIR2DS3 /// KIR2DS4 /// KIR3DL3 /// KIR3DL3 /// KIR3DS1 (11738374_at) / Fold change /veh KIR2DL2 /// KIR2DL4 /// KIR2DL5A /// KIR2DL5B /// KIR2DS1 /// KIR2DS2 /// KIR2DS3 /// KIR2DS4 /// KIR3DL3 /// KIR3DL3 /// KIR3DS1 (11738374_at) / RFU C1QL1 (11718748_at) / Fold change /veh C1QL1 (11718748_at) / RFU TMPRSS4 (11747572_a_at) / Fold change /veh TMPRSS4 (11747572_a_at) / RFU HAMP (11756126_x_at) / Fold change /veh HAMP (11756126_x_at) / RFU RNFT2 (11725882_a_at) / Fold change /veh RNFT2 (11725882_a_at) / RFU NR4A2 (11747474_a_at) / Fold change /veh NR4A2 (11747474_a_at) / RFU ABCC12 (11746883_a_at) / Fold change /veh ABCC12 (11746883_a_at) / RFU TMEM136 (11760407_x_at) / Fold change /veh TMEM136 (11760407_x_at) / RFU CLDN22 /// WWC2 (11732394_at) / Fold change /veh CLDN22 /// WWC2 (11732394_at) / RFU HLA-DPB1 (11760878_x_at) / Fold change /veh HLA-DPB1 (11760878_x_at) / RFU SPINT1 (11716480_a_at) / Fold change /veh SPINT1 (11716480_a_at) / RFU GAP43 (11754022_s_at) / Fold change /veh GAP43 (11754022_s_at) / RFU A4GNT (11735810_at) / Fold change /veh A4GNT (11735810_at) / RFU PRB3 (11715151_x_at) / Fold change /veh PRB3 (11715151_x_at) / RFU TUBB4B (11761932_at) / Fold change /veh TUBB4B (11761932_at) / RFU CAPN14 (11732068_a_at) / Fold change /veh CAPN14 (11732068_a_at) / RFU TMCC2 (11721928_a_at) / Fold change /veh TMCC2 (11721928_a_at) / RFU IRGQ (11745062_a_at) / Fold change /veh IRGQ (11745062_a_at) / RFU FAM174B (11720279_a_at) / Fold change /veh FAM174B (11720279_a_at) / RFU TMPRSS4 (11748680_a_at) / Fold change /veh TMPRSS4 (11748680_a_at) / RFU FAM212B (11763350_a_at) / Fold change /veh FAM212B (11763350_a_at) / RFU PLEKHG5 (11743358_a_at) / Fold change /veh PLEKHG5 (11743358_a_at) / RFU ZSCAN30 (11745921_a_at) / Fold change /veh ZSCAN30 (11745921_a_at) / RFU CMKLR1 (11741424_a_at) / Fold change /veh CMKLR1 (11741424_a_at) / RFU LOC101060620 /// MAPK8IP1 (11723275_at) / Fold change /veh LOC101060620 /// MAPK8IP1 (11723275_at) / RFU SPTSSB (11747773_x_at) / Fold change /veh SPTSSB (11747773_x_at) / RFU PRSS12 (11739890_at) / Fold change /veh PRSS12 (11739890_at) / RFU BIN1 (11741810_x_at) / Fold change /veh BIN1 (11741810_x_at) / RFU WNT11 (11732464_a_at) / Fold change /veh WNT11 (11732464_a_at) / RFU C10orf10 (11716521_a_at) / Fold change /veh C10orf10 (11716521_a_at) / RFU C5orf56 (11738089_at) / Fold change /veh C5orf56 (11738089_at) / RFU CYB561 (11721691_x_at) / Fold change /veh CYB561 (11721691_x_at) / RFU ANKRD19P (11752326_a_at) / Fold change /veh ANKRD19P (11752326_a_at) / RFU OR2T12 /// OR2T33 /// OR2T8 (11738714_s_at) / Fold change /veh OR2T12 /// OR2T33 /// OR2T8 (11738714_s_at) / RFU VCAN (11748164_a_at) / Fold change /veh VCAN (11748164_a_at) / RFU JSRP1 (11732532_at) / Fold change /veh JSRP1 (11732532_at) / RFU KRTAP10-11 (11738290_x_at) / Fold change /veh KRTAP10-11 (11738290_x_at) / RFU MYO3A (11730013_a_at) / Fold change /veh MYO3A (11730013_a_at) / RFU EBF3 (11725865_a_at) / Fold change /veh EBF3 (11725865_a_at) / RFU CAMK2N1 (11719241_x_at) / Fold change /veh CAMK2N1 (11719241_x_at) / RFU C5orf56 (11738088_a_at) / Fold change /veh C5orf56 (11738088_a_at) / RFU OLFML3 (11715873_a_at) / Fold change /veh OLFML3 (11715873_a_at) / RFU LOC100653217 /// NTM (11731650_a_at) / Fold change /veh LOC100653217 /// NTM (11731650_a_at) / RFU MAPK11 (11762145_a_at) / Fold change /veh MAPK11 (11762145_a_at) / RFU FIZ1 (11724087_x_at) / Fold change /veh FIZ1 (11724087_x_at) / RFU OASL (11726364_x_at) / Fold change /veh OASL (11726364_x_at) / RFU SOX15 (11748057_x_at) / Fold change /veh SOX15 (11748057_x_at) / RFU CD79A (11719716_a_at) / Fold change /veh CD79A (11719716_a_at) / RFU HIST1H1D (11736915_at) / Fold change /veh HIST1H1D (11736915_at) / RFU CASKIN2 (11723855_a_at) / Fold change /veh CASKIN2 (11723855_a_at) / RFU LOC730098 (11760151_x_at) / Fold change /veh LOC730098 (11760151_x_at) / RFU OR4N2 (11742367_at) / Fold change /veh OR4N2 (11742367_at) / RFU PRRT2 (11749266_a_at) / Fold change /veh PRRT2 (11749266_a_at) / RFU SNX32 (11753110_a_at) / Fold change /veh SNX32 (11753110_a_at) / RFU CDHR5 (11726645_a_at) / Fold change /veh CDHR5 (11726645_a_at) / RFU RCAN1 (11760418_a_at) / Fold change /veh RCAN1 (11760418_a_at) / RFU FAM167A (11723789_a_at) / Fold change /veh FAM167A (11723789_a_at) / RFU FAM26E (11764081_at) / Fold change /veh FAM26E (11764081_at) / RFU ISYNA1 (11749810_s_at) / Fold change /veh ISYNA1 (11749810_s_at) / RFU ACY1 (11761880_at) / Fold change /veh ACY1 (11761880_at) / RFU 11764098_at / Fold change /veh 11764098_at / RFU SAMD14 (11745864_x_at) / Fold change /veh SAMD14 (11745864_x_at) / RFU NPB (11741838_a_at) / Fold change /veh NPB (11741838_a_at) / RFU TMPRSS6 (11731388_a_at) / Fold change /veh TMPRSS6 (11731388_a_at) / RFU KRTAP10-2 (11738614_at) / Fold change /veh KRTAP10-2 (11738614_at) / RFU ARHGAP8 /// PRR5-ARHGAP8 (11727945_x_at) / Fold change /veh ARHGAP8 /// PRR5-ARHGAP8 (11727945_x_at) / RFU KRTAP5-7 /// NADSYN1 (11734609_at) / Fold change /veh KRTAP5-7 /// NADSYN1 (11734609_at) / RFU RASL12 (11751679_a_at) / Fold change /veh RASL12 (11751679_a_at) / RFU CDKN2B (11736163_a_at) / Fold change /veh CDKN2B (11736163_a_at) / RFU PRF1 (11729649_at) / Fold change /veh PRF1 (11729649_at) / RFU, ZNF638 /// ZNF638-IT1 / Fold change vs veh, ZNF638 /// ZNF638-IT1 / RFU, PANK3 / Fold change vs veh, PANK3 / RFU, SH3YL1 / Fold change vs veh, SH3YL1 / RFU, ZEB2 / Fold change vs veh, ZEB2 / RFU, NRIP1 / Fold change vs veh, NRIP1 / RFU, PTTG1IP / Fold change vs veh, PTTG1IP / RFU, CAPN2 / Fold change vs veh, CAPN2 / RFU, MED14 / Fold change vs veh, MED14 / RFU, SNORA58 / Fold change vs veh, SNORA58 / RFU, C1orf63 / Fold change vs veh, C1orf63 / RFU, LRRFIP1 / Fold change vs veh, LRRFIP1 / RFU, NDUFAF7 / Fold change vs veh, NDUFAF7 / RFU, SLC12A2 / Fold change vs veh, SLC12A2 / RFU, IBTK / Fold change vs veh, IBTK / RFU, ESF1 / Fold change vs veh, ESF1 / Fold change vs veh, TMEM50B / RFU, TAOK1 / Fold change vs veh, TAOK1 / RFU, ACBD3 / Fold change vs veh, ACBD3 / RFU, TMA16 / Fold change vs veh, TMA16 / RFU, RWDD3 / Fold change vs veh, RWDD3 / RFU, BCAT1 / Fold change vs veh, BCAT1 / RFU, EDEM3 / Fold change vs veh, EDEM3 / RFU, TMEM33 / Fold change vs veh, TMEM33 / RFU, WDR75 / Fold change vs veh, WDR75 / RFU, AHCTF1 / Fold change vs veh, AHCTF1 / RFU, TFRC / Fold change vs veh, TFRC / RFU, ZDHHC17 / Fold change vs veh, ZDHHC17 / RFU, NOM1 / Fold change vs veh, NOM1 / RFU, ARL8B / Fold change vs veh, ARL8B / RFU, ZBTB11 / Fold change vs veh, ZBTB11 / RFU, TAMM41 / Fold change vs veh, TAMM41 / RFU, KIAA1704 /// LOC100996395 / Fold change vs veh, KIAA1704 /// LOC100996395 / RFU, ING1 / Fold change vs veh, ING1 / RFU, TRMT61B / Fold change vs veh, TRMT61B / RFU, FUBP3 / Fold change vs veh, FUBP3 / RFU, TP53 / Fold change vs veh, TP53 / RFU, TNKS2 / Fold change vs veh, TNKS2 / RFU, ZFP14 / Fold change vs veh, ZFP14 / RFU, ACTR2 / Fold change vs veh, ACTR2 / RFU, PPP3R1 / Fold change vs veh, PPP3R1 / RFU, PIK3R1 / Fold change vs veh, PIK3R1 / RFU, HNRNPA1 / Fold change vs veh, HNRNPA1 / RFU, RNF170 / Fold change vs veh, RNF170 / RFU, ZNF28 / Fold change vs veh, ZNF28 / RFU, RNGTT / Fold change vs veh, RNGTT / RFU, OGT / Fold change vs veh, OGT / RFU, BRD1 / Fold change vs veh, BRD1 / RFU, MARS / Fold change vs veh, MARS / RFU, ZNF655 / Fold change vs veh, ZNF655 / RFU, FAHD1 / Fold change vs veh, FAHD1 / RFU, BDP1 / Fold change vs veh, BDP1 / RFU, LRRCC1 / Fold change vs veh, LRRCC1 / RFU, ARID1A / Fold change vs veh, ARID1A / RFU, ZNF146 / Fold change vs veh, ZNF146 / RFU, ZNF330 / Fold change vs veh, ZNF330 / RFU, GPN3 / Fold change vs veh, GPN3 / RFU, C9orf123 / Fold change vs veh, C9orf123 / RFU, N4BP2L2 / Fold change vs veh, N4BP2L2 / RFU, ARFIP1 / Fold change vs veh, ARFIP1 / RFU, FAM179B / Fold change vs veh, FAM179B / RFU, BCL10 / Fold change vs veh, BCL10 / RFU, UHRF1BP1L / Fold change vs veh, UHRF1BP1L / RFU, BET1 / Fold change vs veh, BET1 / RFU, CNOT2 / Fold change vs veh, CNOT2 / RFU, ZNF268 / Fold change vs veh, ZNF268 / Fold change vs veh, ZNF507 / RFU, DGCR2 / Fold change vs veh, DGCR2 / RFU, WDSUB1 / Fold change vs veh, WDSUB1 / Fold change vs veh, HSP90B1 /// MIR3652 / RFU, ADSS / Fold change vs veh, ADSS / RFU, GK / Fold change vs veh, GK / RFU, ZNF148 / Fold change vs veh, ZNF148 / RFU, TAF9 / Fold change vs veh, TAF9 / RFU, SLC1A5 / Fold change vs veh, SLC1A5 / RFU, SLMO2 / Fold change vs veh, SLMO2 / RFU, ABCC4 / Fold change vs veh, ABCC4 / RFU, LOC101060439 /// RAP1B / Fold change vs veh, LOC101060439 /// RAP1B / RFU, RFX7 / Fold change vs veh, RFX7 / RFU, GTPBP10 / Fold change vs veh, GTPBP10 / RFU, CNEP1R1 / Fold change vs veh, CNEP1R1 / RFU, BIVM-ERCC5 /// ERCC5 / Fold change vs veh, BIVM-ERCC5 /// ERCC5 / RFU, ILF3 / Fold change vs veh, ILF3 / RFU 11762660_at / Fold change /veh 11762660_at / RFU VCAN (11757783_s_at) / Fold change /veh VCAN (11757783_s_at) / RFU DDX43 (11728927_at) / Fold change /veh DDX43 (11728927_at) / RFU KRT8 (11758188_x_at) / Fold change /veh KRT8 (11758188_x_at) / RFU NKD1 (11759106_at) / Fold change /veh NKD1 (11759106_at) / RFU SRD5A1 (11742802_a_at) / Fold change /veh SRD5A1 (11742802_a_at) / RFU TPSAB1 /// TPSB2 (11721975_s_at) / Fold change /veh TPSAB1 /// TPSB2 (11721975_s_at) / RFU GSTM3 (11746129_a_at) / Fold change /veh GSTM3 (11746129_a_at) / RFU IL23R (11737362_x_at) / Fold change /veh IL23R (11737362_x_at) / RFU TMEM51 (11727254_a_at) / Fold change /veh TMEM51 (11727254_a_at) / RFU PIWIL2 (11732686_x_at) / Fold change /veh PIWIL2 (11732686_x_at) / RFU ORM1 (11744905_x_at) / Fold change /veh ORM1 (11744905_x_at) / RFU CCDC152 (11743942_at) / Fold change /veh CCDC152 (11743942_at) / RFU ECM1 (11717891_a_at) / Fold change /veh ECM1 (11717891_a_at) / RFU IL23R (11748794_a_at) / Fold change /veh IL23R (11748794_a_at) / RFU TNFAIP8L3 (11732012_x_at) / Fold change /veh TNFAIP8L3 (11732012_x_at) / RFU MBOAT4 (11741988_at) / Fold change /veh MBOAT4 (11741988_at) / RFU 11764193_at / Fold change /veh 11764193_at / RFU TMEM53 (11763286_at) / Fold change /veh TMEM53 (11763286_at) / RFU MAGEB2 (11727129_at) / Fold change /veh MAGEB2 (11727129_at) / RFU TMEM200A (11744735_a_at) / Fold change /veh TMEM200A (11744735_a_at) / RFU CCDC152 (11751479_a_at) / Fold change /veh CCDC152 (11751479_a_at) / RFU FAM211A (11726209_a_at) / Fold change /veh FAM211A (11726209_a_at) / RFU RGS16 (11746705_a_at) / Fold change /veh RGS16 (11746705_a_at) / RFU VCAN (11755009_s_at) / Fold change /veh VCAN (11755009_s_at) / RFU RHOB (11743442_s_at) / Fold change /veh RHOB (11743442_s_at) / RFU RGS16 (11720943_a_at) / Fold change /veh RGS16 (11720943_a_at) / RFU RGS16 (11720944_at) / Fold change /veh RGS16 (11720944_at) / RFU, VPS4B / Fold change vs veh, VPS4B / RFU, CREB1 / Fold change vs veh, CREB1 / RFU, DNAJC13 / Fold change vs veh, DNAJC13 / RFU, GNAQ / Fold change vs veh, GNAQ / RFU, CDK5R1 / Fold change vs veh, CDK5R1 / RFU, ZRANB3 / Fold change vs veh, ZRANB3 / RFU, CUL4A / Fold change vs veh, CUL4A / RFU, CCNY / Fold change vs veh, CCNY / RFU, UFL1 / Fold change vs veh, UFL1 / RFU, COG3 / Fold change vs veh, COG3 / RFU, DIAPH2 / Fold change vs veh, DIAPH2 / RFU, SKA2 / Fold change vs veh, SKA2 / RFU, AFF3 / Fold change vs veh, AFF3 / RFU, LMF1 / Fold change vs veh, LMF1 / RFU, IPO11 / Fold change vs veh, IPO11 / RFU, DFFB / Fold change vs veh, DFFB / RFU, FOXP1 / Fold change vs veh, FOXP1 / RFU, CARD8 / Fold change vs veh, CARD8 / RFU, STRN3 / Fold change vs veh, STRN3 / RFU, ADK / Fold change vs veh, ADK / RFU, RASSF2 / Fold change vs veh, RASSF2 / RFU, WIPF1 / Fold change vs veh, WIPF1 / RFU, LARP1B / Fold change vs veh, LARP1B / RFU, RASA1 / Fold change vs veh, RASA1 / RFU, RB1 / Fold change vs veh, RB1 / RFU, PPFIA1 / Fold change vs veh, PPFIA1 / RFU, MAT2A / Fold change vs veh, MAT2A / RFU, CCT5 / Fold change vs veh, CCT5 / RFU, WDR92 / Fold change vs veh, WDR92 / RFU, CUX1 / Fold change vs veh, CUX1 / RFU, TTC7A / Fold change vs veh, TTC7A / RFU, TMEM135 / Fold change vs veh, TMEM135 / RFU, DEPTOR / Fold change vs veh, DEPTOR / RFU, CPM / Fold change vs veh, CPM / RFU, DNAJB6 / Fold change vs veh, DNAJB6 / RFU, CACNA2D3 / Fold change vs veh, CACNA2D3 / RFU, DTX4 / Fold change vs veh, DTX4 / RFU, TFCP2 / Fold change vs veh, TFCP2 / RFU, GMCL1 /// GMCL1P1 / Fold change vs veh, GMCL1 /// GMCL1P1 / RFU, AEBP2 / Fold change vs veh, AEBP2 / RFU, SNHG1 /// SNORD22 /// SNORD25 /// SNORD26 /// SNORD27 /// SNORD28 /// SNORD29 /// SNORD31 / Fold change vs veh, SNHG1 /// SNORD22 /// SNORD25 /// SNORD26 /// SNORD27 /// SNORD28 /// SNORD29 /// SNORD31 / Fold change (Aza/veh), C12orf56 (ProbeSet 11735607_a_at) / Fold change (ACY-1035/veh), C12orf56 (ProbeSet 11735607_a_at) / Fold change (Aza/veh), FGFR1OP (ProbeSet 11751329_s_at) / Fold change (ACY-1035/veh), FGFR1OP (ProbeSet 11751329_s_at) / Fold change (Aza/veh), VPS36 (ProbeSet 11739960_a_at) / Fold change (ACY-1035/veh), VPS36 (ProbeSet 11739960_a_at) / RFU SYPL1 (11715823_x_at) / Fold change /veh SYPL1 (11715823_x_at) / RFU IGFBP7 (11715501_s_at) / Fold change /veh IGFBP7 (11715501_s_at) / RFU REEP3 (11722064_at) / Fold change /veh REEP3 (11722064_at) / RFU IGLL1 (11728026_x_at) / Fold change /veh IGLL1 (11728026_x_at): dose or concentration left out as unconfirmed
Conditions: MV-4-11 cells, 48 hours

Nc1ccc(-c2cccs2)cc1NC(=O)c1ccc2c(c1)cc(C1CC1)n2CCN1CCOCC1 [ACY-1035]
Fold change /veh NKD1 (11759106_at): 1.08
